{"source": "patent US20080027005A1", "about": "“PEPTIDES EFFECTIVE IN THE TREATMENT OF TUMORS AND OTHER CONDITIONS REQUIRING THE REMOVAL OR DESTRUCTION OF CELLS” (priority 2006, published 2008)", "tested_on": "prostate", "test": "Effect of S05B Peptides on tissue at sites of injection: intraprostatic infusion in rats, histology and prostate volume", "type": "in vivo, Male Sprague-Dawley rats", "conditions": "for Histological findings in prostate of treated rats: rat prostate after intraprostatic infusion 1.0 mg/kg, controls minimal or absent changes; for Calculated Mean Volume (mm^3) At 7 Days / Reduction in Mean Volume Compared to Controls / Histological Changes of Cell Death at 24 Hours / Histological Changes of Cell Death at 72 Hours: rat prostate; for Calculated Mean Volume (mm^3) At 7 Days: 7 days after intraprostatic infusion 1.0 mg/kg, V=4/3π(D/2)^3 from mean cross-sectional diameters, PBS control 519; for Reduction in Mean Volume Compared to Controls: 7 days, compared to PBS injection only; for Histological Changes of Cell Death at 24 Hours / Histological Changes of Cell Death at 72 Hours: intraprostatic infusion 300 μl of 1 mg/mL in PBS pH 7.4 (1.0 mg/kg), H & E sections", "method": "The purpose of this example was to determine the effect of S05B Peptides on tissue at sites of injection.\nMale Sprague-Dawley rats (300 gram weight range) were anesthetized with ether and given one of the above S05B Peptides by intraprostatic infusion, a control injection of normal saline or no injection after open surgical visualization of the prostate. The injections consisted of 300 μl of the S05B Peptide 1 mg/mL in PBS pH 7.4. (1.0 mg/kg) (n=85). Rats were painlessly sacrificed after 24 hours (n=18), 72 hours (n=35) and 7 days (n=32). Prostate glands were dissected, fixed in 10% buffered formalin for 24 hours, embedded in paraffin, sectioned, and stained with H & E. For each animal the entire prostate gland was embedded and sectioned. All stained sections were examined histologically. For each prostate at least 2 histological sections were examined, and for each histological section from the 7 day group two cross-sectional diameters (D) at 90° from each other were measured (total of >8 measurements per prostate). The mean of the cross-sectional diameters (D) for each group was used to estimate volume according to V=4/3π(D/2)^3 and the mean volume calculated for each group. Histological changes were assessed on the following scale:\n+++ Present, Moderate and Diffuse\n++++ Present, Diffuse and Extensive", "note": "Where no end group is shown, it is not given here.", "data": [{"substance": "IDQQVL [S05B-4]", "values": [{"measurement": "Histological findings in prostate of treated rats", "result": "extensive cell death, necrosis, loss of glandular epithelium and atrophy"}, {"measurement": "Calculated Mean Volume (mm^3) At 7 Days", "result": 358, "unit": "mm^3"}, {"measurement": "Reduction in Mean Volume Compared to Controls", "result": 31, "unit": "%"}, {"measurement": "Histological Changes of Cell Death at 24 Hours", "result": "++"}, {"measurement": "Histological Changes of Cell Death at 72 Hours", "result": "++"}]}, {"substance": "DQQVLSRI [S05B-3]", "values": [{"measurement": "Histological findings in prostate of treated rats", "result": "extensive cell death, necrosis, loss of glandular epithelium and atrophy"}, {"measurement": "Calculated Mean Volume (mm^3) At 7 Days", "result": 289, "unit": "mm^3"}, {"measurement": "Reduction in Mean Volume Compared to Controls", "result": 44, "unit": "%"}, {"measurement": "Histological Changes of Cell Death at 24 Hours", "result": "+++"}, {"measurement": "Histological Changes of Cell Death at 72 Hours", "result": "+++"}]}, {"substance": "DQQVLS [S05B-2]", "values": [{"measurement": "Histological findings in prostate of treated rats", "result": "extensive cell death, necrosis, loss of glandular epithelium and atrophy"}, {"measurement": "Calculated Mean Volume (mm^3) At 7 Days", "result": 289, "unit": "mm^3"}, {"measurement": "Reduction in Mean Volume Compared to Controls", "result": 44, "unit": "%"}, {"measurement": "Histological Changes of Cell Death at 24 Hours", "result": "+++"}, {"measurement": "Histological Changes of Cell Death at 72 Hours", "result": "+++"}]}]}
